Each block holds one compound with its values, some of them ahead of it.
Assays:
[1] = test system: INA-6 MM cells in implanted human bone; experiment: SCID-hu model of human multiple myeloma bone disease; assay type: in vivo, SCID-hu mice; details: 12 mg/kg, vs vehicle control
Excerpt: FIG. 22A-22F show inhibition of multiple myeloma (MM) cell growth and MM-induced bone lysis in a murine model of human MM by administration of a Btk inhibitor described herein. […] Tissue slides were stained with H&E and immunohistochemically analyzed for CD138 (MM), TRAP(OC), and ALP (OB). Original magnification, ×200 except for ALP (×400). […] Effects of Btk inhibitor treatment were also quantitated in the left (mouse L) and right (mouse R) normal mouse extremities (FIG. 22F)
Btk inhibition by the compounds described herein and suppression of MM cell growth and […] were studied in vivo in a mouse model of MM bone disease, the SCID-hu model (FIG. 22A). MM cell growth was quantitated by measuring soluble IL6R (sIL6R) secreted by INA-6 MM cells in murine blood, and mice were treated with a compound of Formula (A), (B), (C), or (D) following first detection of tumor growth. […] Histologic analysis and immunohistochemistry for CD138 and TRAP staining confirmed decreased numbers of MM cells and reduced bone resorption activity in the human bones retrieved from the mice treated with the compound, as compared with the control group (FIG. 22B).

[2] = test system: human monocyte derived osteoclasts; experiment: Human monocyte derived osteoclastogenesis (M-CSF/RANKL), TRAP and actin staining; assay type: cell-based
Excerpt: Further, as depicted in FIG. 18, and FIG. 19, the BTK inhibitors described herein inhibit RANKL induced Btk, PLC-g, Erk and NF-kB activation of osteoclasts derived from human monocytes and murine RAW cells.
We confirmed by immunoblotting that activation of Btk mediates osteoclastogenesis induced by M-CSF and RANKL in CD14+ OC. precursor cells. Phosphorylation of Btk and its downstream PLCγ2 was induced by M-CSF/RANKL in CD14+ monocytes from human donors and mouse RAW 264.7 cells (FIG. 20A). […] At the end of 2-week culture of M-CSF/RANKL-stimulated normal donor monocytes (donor number>4) in plastic tissue culture plates, we observed a significant reduction in multinucleated mature Osteoclast (OC) numbers (TRAP+, >3 nuclei and >50 μm per OC cell, p<0.01), as well as irregular TRAP staining pattern of multinucleated OC influenced by the BtK inhibitor, in a dose-dependent fashion (FIG. 20C-E). To further assess the effects of PCI-32765 on osteoclastogenesis, OC precursor cells from human donors were cultured on glass cover slips, followed by immunofluorescence staining for actin cytoskeleton and pit formation assay for bone resorption activity. […] Most importantly, the Btk inhibitors described herein profoundly diminished bone erosion area formed by OCs cultured on dentine slices in pit formation assays, with or without dexamethasone (FIG. 21D).

[3] = test system: BCR-activated calcium flux in Ramos cells; experiment: BCR-induced calcium flux assay in anti-IgM stimulated Ramos cells; details: Homo sapiens, read-out: Ramos Cell Ca Flux IC50 (nM)
[4] = 24 h post dose

SMILES: C=CC(=O)N1CCC[C@@H](n2nc(-c3ccc(Oc4ccccc4)cc3)c3c(N)ncnc32)C1 [PCI-32765]
- MM-induced osteolysis / bone lysis in implanted human bone ([1]; micro-CT): significantly reduced osteolysis
- osteogenic activity (ALP expression, ALP+/BS) in implanted human bone ([1]; p<0.01): enhanced osteogenic activity
- numbers of mature OC, treated versus normal OC cultures ([2]; human OC precursor cells on glass cover slips): Significantly reduced numbers of mature OC
- spreading area per cell and number of nuclei per OC ([2]; human OCs on glass cover slips, p<0.01): expanded spreading area per cell

- IC50 [3]: 36 nM
SMILES: CN(C)C/C=C/C(=O)N1CCCC(n2nc(-c3ccc(Oc4ccccc4)cc3)c3c(N)ncnc32)C1 (stereo not drawn) [Compound 15, (E)-1-(3-(4-amino-3-(4-phenoxyphenyl)-1H-pyrazolo[3,4-d]pyrimidin-1-yl)piperidin-1-yl)-4-(dimethylamino)but-2-en-1-one]

- levels twenty four hours post dose [4]: below the level of quantitation
SMILES: C=CC(=O)N1CCCC(n2nc(-c3ccc(Oc4ccccc4)cc3)c3c(N)ncnc32)C1 (stereo not drawn) [Compound 4, 1-(3-(4-amino-3-(4-phenoxyphenyl)-1H-pyrazolo[3,4-d]pyrimidin-1-yl)piperidin-1-yl)prop-2-en-1-one]
